# Measured values taken from US20030148963A1 (priority 2000, published 2003).
# Values joined by “and” are separate entries in the source; they are usually repeats but may differ in a detail not shown here. Identical values can stand only once. Marks after values point to notes of the source that are not given here.
# Legend:
# immunoglobulins = assay: Serum total immunoglobulins (single radial immunodiffusion); format: in vivo, B10.QxDBA/1 female mice; details: serum at end of experiment, mean ± SEM
# Protocol: Serum levels of immunoglobulins were measured by the single radial immunodiffusion technique (12). Antiserum was purchased from Dako (Dako A/S, Denmark) and mouse immunoglobulin standards were obtained from Sigma (Sigma Chemical Co., St. Louis, Mo.).
# IL-6 [1] = format: cell-based, NMRI mice; details: spleen cells from non-infected in vivo etoposide-treated mice; mean ± SEM, four mice
# [2] = system: S. aureus-induced arthritis
# Protocol: NMRI mice of both sexes, 6-8 weeks old, were obtained from B&K Universal AB (Stockholm, Sweden). They were housed in the animal facility of the Department of Rheumatology, University of Göteborg, under standard conditions of light and temperature and fed standard laboratory chow and water ad libitum.
# S. aureus LS-1 strain was originally isolated from a swollen joint of a spontaneously arthritic NZB/W mouse. The bacteria were cultured for […] on blood agar plates, replated for another 24 h, washed and kept frozen at −20° C. in PBS containing 5% bovine serum albumin ([…]) and 10% dimethyl sulfoxide ([…]) until used. Before use, the bacterial solution was thawed and washed in PBS. Viable count was done to check the number of bacteria in each bacterial solution mice were given i.v. injections (in the tail vein) of 0.2 ml of bacterial solution
# All the mice were monitored individually. Their limbs were inspected visually every day during the experiment. Arthritis was defined as visible joint erytbema and/or swelling of at least one joint. To evaluate the intensity of arthritis, a clinical scoring system of 0 to 3 points for each limb was used (1 point, mild swelling and/or erytema; 2 points, moderate swelling and erythema; 3 points, marked swelling and erytema). The arthritic index was constructed by adding the scores from all four limbs for each animal. Previous study has shown that there is a good correlation between the clinical and histopathological appearance of arthritis. The overall condition of each mouse was evaluated by assessing its weight, general appearance, alertness, and skin abnormalities.
# IC-21 cells = assay: Viability and cell number of IC-21 cells; format: cell-based, murine; details: IC-21, etoposide-containing medium at concentrations 0.1 and 0.01 mM (so in the source); preliminary experiments, data not shown
# Protocol: These cells display many typical features of the macrophage phenotype and are therefore a suitable model for studying cytoline and chemokine release during inflammation (16). The cells were maintained in continous culture using RPMI-1640 supplemented with 10% FCS, L-glutamine, and gentamycin. When the cells had grown to about 70% confluency, they were seeded into a 24-well-plate (Nunc) at a concentration of 1×10^5 per well and incubated at 37° C. in 5% CO2 for 24 h. After 24 h the medium was changed into etoposide-containing medium at concentrations 0.1 and 0.01 mM. […] After 24 h of incubation, the cells were washed once with PBS, and reincubated with medium containing different concentrations (1, 10, 100, 1000 ng/ml) of LPS (Difco) and IFN-γ (10, 50, 100 u/nml). The interferon-γ was purified from the supernatants from Chinese hanater ovary (CHO) cells transfected with the murine IFN-γ gene (hybridoma kindly provided by Dr. Morris, Department of Biological Sciences, University of Warwick, Coventry, UK). After 2 and 24 h of incubation the supernatants were collected and stored at −20° C. until analysis.
# TNF = format: cell-based, NMRI mice; details: spleen cells from non-infected in vivo etoposide-treated mice; mean ± SEM, four mice
# IL-6 [3] = assay: Serum IL-6 in CII immunized mice (B9 bioassay); format: in vivo, B10.QxDBA/1 female mice; details: serum at end of experiment, mean ± SEM
# Protocol: For quantification of serfu CII antibodies, 96-well plates (Nunc, Roskilde, Denmark) were coated overnight at 4° C. with 10 μg/ml of native CII. Standards and samples were diluted in 0.5% BSA-PBS. Biotinylated F(ab/)2 fragments of goat anti-mouse IgG (Jackson ImmunoResearch Laboratories, West Grove, Pa.) was used as secondary antibody. Development was performed using horseradish peroxidase 0.5 μg/ml and 2.5 mg of the enzyme substrate 2,2-azino-bis-(3-ethylbenzothiazoline sulfonic acid) (Sigma) per mal in citrate buffer (pH 4.2), containing 0.0075% H2O2. The absorbance was measured at 405 nm in a SPECTRAmax spectrophotometer (Molecular Devices, Calif.). IFN-γ levels in sera were quantified with an ELISA system previously described (13). Ninety-six well plates (Nunc) were coated with 2 μg/ml of rat anti-mouse IFN-γ mab (Pharmingen, San Diego, Calif.). Sera, recombinant IFN-γ (Genzyme, Cambridge, Mass.), biotinylated antibodies were all diluted in 0.05 M Tris pH 7.4+0.015 M NaCl. A biotinylated anti mouse IFN-γ antibody (2 μg/ml) (Pharmigen) was used as secondary antibody. After incubation with extravidin alkaline phosphatase 0.5 ?g/ml and alkaline phosphatase substrate 1 mg/ml (Sigma) the absorbance was measured at 405 nm. Interleukin 6 (IL-6) levels in serum and supernatants were measured by a bioassay using cell line B13.29, subclone B9, which is dependent on IL-6 for growth. […]
# [4] = Etoposide-treated (from day 40)
smiles,measurement,setting,value
COc1cc([C@@H]2c3cc4c(cc3[C@@H](O[C@@H]3O[C@@H]5CO[C@@H](C)O[C@H]5[C@H](O)[C@H]3O)[C@H]3COC(=O)[C@H]23)OCO4)cc(OC)c1O [Etoposide],Total immunoglobulin levels,immunoglobulins; Etoposide-pretreated,9.2±0.5 mg/ml and 9.2 ± 0.5a mg/ml
same,Total immunoglobulin levels,immunoglobulins; [4],8.5±0.7 mg/ml and 8.5 ± 0.8^a mg/ml
same,"IL-6, ConA stimulated",IL-6 [1],455 ± 85^b pg/ml
same,"IL-6, TSST-1 stimulated",IL-6 [1],255 ± 66b pg/ml
same,Mortality,"[2]; 1-2×10^7 CFU S. aureus, starting four days after inoculation, FIG. 1B",higher mortality than the controls
same,Weight loss,"[2]; S. aureus infected mice vs controls, data not shown",more prominent
same,Frequency of clinical signs of arthritis,"[2]; six days after inoculation, 1-2×10^7 CFU S. aureus, controls 70%",35%
same,Mice died,"[2]; suboptimal dose of bacteria 1×10^6 CFU, 8 days after inoculation, controls 1 out of 10",6 out of 10
same,Cell viability or total cell numbers,IC-21 cells,not to influence the cell viability or total cell numbers
same,"TNF, ConA stimulated",TNF,138 ± 17 pg/mL
same,"TNF, TSST-1 stimulated",TNF,77 ± 22 pg/mL
same,IL-6,IL-6 [3]; Etoposide-pretreated,117 ± 21a pg/ml
same,IL-6,IL-6 [3]; [4],179 ± 21^b pg/ml
